Experimental findings from patent publication US8252833B2, “Benzo (f) isoindol-2-ylphenyl acetic acid derivatives as EP4 receptor agonists” (Glaxo Group Limited, priority 2006, dated 2012) are described below.

Data set [1] relates to FCA induced hypersensitivity. The data set is described as follows: FCA induced hypersensitivity in the rat, weight-bearing readout. The class given is in vivo. The settings on record: for Effect of low dose when administered alone: low (ED20) doses alone, p.o. (FIG. 1); for ED20 dose: p.o., reversal of FCA induced hypersensitivity. How it is done:
• At the start of the study, naïve weight bearing readings were taken. The hypersensitivity to pain was measured using the Rat incapacitance tester (Linton instruments). • All male rats (RH strain, 180-220 g) then received an intraplantar injection of 100 ul of FCA (Freund's complete adjuvant) into the left hind paw. The ECA was sonicated for 15 minutes prior to use. • 24 hours after administration of the FCA, pre-dose weight bearing readings were taken. All animals were then ranked and randomised for dosing according to their FCA window (predose difference in grams—naïve difference in grams). Rats with FCA window less than 30 were excluded from the study. • Animals were then dosed orally according to ranking and randomisation. Two studies were carried out as follows: • In the first study the ED20 doses of Example 9 and paracetamol were combined using the following protocol, • (1) Vehicle (1% methylcellulose) p.o. • (2) Paracetamol (60 mg/kg) p.o.* • (3) Example 9 (0.1 mg/kg) p.o.* • (4) Example 9 (0.1 mg/kg)+Paracetamol (60 mg/kg) p.o.** • (5) Celecoxib (10 mg/kg) p.o. • *ED20 dose • **Example 9 was dosed initially followed by paracetamol 30 minutes later. • In the second study a fixed dose ratio combination with Example 9 and paracetamol was completed using the following protocol, • (1) Vehicle (1% methylcellulose) p.o.+Vehicle (1% methylcellulose) p.o. • (2) Example 9, 0.003 mg/kg p.o.+Paracetamol, 1.8 mg/kg p.o. • (3) Example 9, 0.01 mg/kg p.o.+Paracetamol, 6 mg/kg p.o. • (4) Example 9, 0.03 mg/kg p.o.+Paracetamol, 18 mg/kg p.o. • (5) Example 9, 0.1 mg/kg p.o.+Paracetamol, 60 mg/kg p.o. • (6) Vehicle (1% methylcellulose) p.o.+Celecoxib, 10 mg/kg p.o. • Animals were assessed in the weight bearing apparatus 1 hour after the dose of paracetamol. • The study was blind and randomised by FCA window using a Latin square method. Preparation Details • All compounds were ground using a pestle and mortar prior to adding the vehicle (1% methylcellulose). Dose volume 5 ml/kg. • All doses were sonicated and stirred before administration. • In this study a positive control was also tested (Celecoxib). […] Statistical Analysis • % reversals were calculated by using the naïve, pre-dose and post dose values as follows: % Reversal=[(Pre-dose−Post-dose)/(Pre-dose−Naïve)]×100. • Graphs and ED50 values were calculated using Prism3. • Statistical analysis was carried out using ANOVA and Fischer LSD test from statistical package Statistica 6. • Synergy was statistically calculated using the synergy macro. The logED50 values and the Standard errors for the individual molecules and the combination study are obtained from Statistica 6 and put into the macro. The fixed dose ratio is specified and the macro then calculates whether the combination was statistically synergistic. It compares the combination data to the theoretical addition of the individual compounds. Results: Percentage Reversal of the Established FCA-Induced Hypersensitivity: […]

The target in data set [2] is T1, recombinant human prostanoid EP4 receptor (Homo sapiens, UniProt P35408).
T1 construct: expressed in transfected cells; host or cells: HEK-293(T) cells (HEK-EP4, G418 selected)
T1 sequence (P35408 whole entry): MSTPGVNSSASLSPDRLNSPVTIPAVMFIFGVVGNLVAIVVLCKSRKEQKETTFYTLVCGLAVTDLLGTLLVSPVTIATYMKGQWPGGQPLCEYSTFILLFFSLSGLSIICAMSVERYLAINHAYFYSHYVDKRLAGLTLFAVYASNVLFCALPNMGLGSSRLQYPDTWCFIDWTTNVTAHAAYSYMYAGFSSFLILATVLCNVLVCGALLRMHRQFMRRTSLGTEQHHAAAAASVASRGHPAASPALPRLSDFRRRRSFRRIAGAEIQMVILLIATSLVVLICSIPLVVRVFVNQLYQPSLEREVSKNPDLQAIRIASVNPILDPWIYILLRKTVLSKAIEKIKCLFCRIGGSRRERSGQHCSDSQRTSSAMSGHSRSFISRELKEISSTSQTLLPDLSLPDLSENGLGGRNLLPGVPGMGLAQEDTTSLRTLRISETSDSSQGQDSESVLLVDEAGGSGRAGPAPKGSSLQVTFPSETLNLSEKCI
Put plainly: In vitro cAMP assay in HEK-EP4 cells. The class given is cell-based.
Experimental: Cells were grown as a monolayer culture in DMEM-F12/F12 containing glutamax II (Gibco) and supplemented with 10% foetal bovine serum (Gibco) and 0.4 mg.ml-1 G418. HEK-EP4 cells were pre-treated 24 hr and 30 mins prior to the experiment with 10 μM indomethacin and harvested using Versene containing 10 μM indomethacin. The cells were resuspended in assay buffer (DMEM:F12, 10 μM indomethacin and 200 μM IBMX) at 1×10^6 cells per ml and incubated for 20 min at 37° C. Thereafter, 50 μl of cells were added to 50 μl agonist (compound of Formula (I)) and incubated at 37° C. for 4 minutes before stopping reactions with 1000 of 1% triton X-100. cAMP levels in the cell lysates were determined using a competition binding assay. In this assay the ability of cell lysates to inhibit 3H-cAMP (Amersham) binding to the binding subunit of protein kinase A was measured and cAMP levels were calculated from a standard curve. The data for each compound were expressed as a % of the response to a 10 nM maximal concentration of the standard agonist PGE2. For each compound the maximal response and concentration of compound causing 50% of its maximal response were calculated. Intrinsic activity is expressed relative to the maximal response to PGE2. Unless stated, reagents were purchased commercially from Sigma.

The nature of data set [3]: Oral pharmacokinetics in the rat. The note with it: in vivo, read-out: oral pharmacokinetic half life (converted).

Each structure is given as a SMILES string.

Broadly, the EC50 is the concentration needed to bring the measured effect to its halfway point. As a reminder, the half-life is the time in which the quantity being followed falls by half.

On to `CC(=O)Nc1ccc(O)cc1` [Paracetamol, paracetamol, reference compound], for which the “Effect of low dose when administered alone” value in data set [1] is “ineffective”. Also, the ED20 dose in data set [1] (rat) came out at 60 mg/kg.
As for `CCOc1c2c(c(OCC)c3ccccc13)C(=O)N(c1ccc(CC(=O)O)c(F)c1)C2` [Example 9, {4-[4,9-Bis(ethyloxy)-1-oxo-1,3-dihydro-2H-benzo[f]isoindol-2-yl]-2-fluorophenyl}acetic acid], in data set [2], the EC50 was 39.8 nM. For the same compound, in data set [2] (maximal response relative to the maximal response to PGE2 (10 nM), read-out: average intrinsic activity), the Emax came to 68%. Also, the half-life in data set [3] was 7.6 h. Moreover, the EC50 at 3 mg/kg in data set [1] (Rattus norvegicus) was 600 nM. Further, in data set [1] (dosed alone at 3 mg/kg, rat), the “reversal of eFCA-induced hypersensitivity” value is on record as 80%. Further, in data set [1], the “Effect of low dose when administered alone” value is reported as “ineffective”. In addition, the ED20 dose in data set [1] (rat) came out at 0.1 mg/kg.
